Test results reported in patent publication US20220105051A1, “COMPOUNDS FOR INCREASING MHC-I EXPRESSION AND MODULATING HISTONE DEACETYLASE ACTIVITY” (Cava Healthcare Inc., priority 2019, published 2022).
Entries after “also recorded” stand apart in the source; their conditions may differ.

Key:
MHC-I [1] = assay: MHC-I surface expression by flow cytometry; type: cell-based, murine; details: A9 cells, 48 hours after treatment, flow cytometry
Method: A9 and TC-1 cell lines were trypsinized (0.05%, Gibco), washed twice with PBS (Gibco), and stained with allophycocyanin (APC) conjugated anti-mouse H-2K^b antibody (1:200, Biolegend) suspended in 150 μL of FACS buffer (PBS+2% FBS) for 20 minutes at 4° C. Cells were washed twice with PBS and re-suspended in 200 μL FACs buffer containing 1 μL of 7-aminoactinomycin (7AAD) viability stain (Biolegend). Flow cytometry was performed on the LSRII (BDBiosciences) and analysis was done using FlowJo (Flow cytometry Analysis Software).
The marine extract library was provided by Dr. Raymond J. Andersen (UBC). The marine invertebrate specimens were collected by SCUBA diving at a 40 metre depth from regions of high marine biodiversity in Papua New Guinea, Indonesia, Thailand, Sri Lanka, Dominica, Brazil, British Columbia, South Africa, and Norway 35. Previously curcuphenol was identified as the active component in one of the marine extracts showing induction of the APM, and since then two new generations of curcuphenol analogues were synthesized in the lab of Dr. Raymond Anderson. To evaluate the ability of these compounds to induce MHC-I surface expression, A9 cells were plated in 6 well plates at 10^5 cells/well and incubated for 24 hours at 37° C. in a 5% CO2 humidified atmosphere. After 24 hours the medium was removed and replaced with medium containing varying concentration of synthesized compounds (6.7 μg/mL, 20 μg/mL, 60 μg/mL). […] Following treatment, cells were incubated for 48 hours at 37° C. with 5% CO2 and humidified atmosphere. After incubation cells were subjected to flow cytometry.
Evaluation of MHC-I surface expression by flow cytometry. LMD:TAP-1 cells or A9 cells were plated in 6 well plates at a concentration of 10,000 cells per well in a 2 mL volume. The next day, cells were treated with the indicated concentrations of the compounds and incubated for 48 hours at 37° C. After incubation, the cells were trypsinized, washed and stained with APC-conjugated anti-mouse MHC-I (specifically anti-H-2K^b) antibody (Biolegend) and assessed by flow cytometry analysis.

Water solubility = type: physicochemical
[2] = literature; cited from earlier work
[3] = test system: A9 metastatic tumour cells; assay: In vivo tumour trial; set-up: species or system C57BL/6 mice; details: daily i.p. for 12 days, P02-113 and P03-97-1 5.2 mg/kg, TSA 0.5 mg/kg
Method: (§1) The metastatic cell line, A9, was grown in the DMEM, as previously described without, the addition of antibiotics (penicillin and streptomycin, P/S). Once cells reached 75-80% confluence, they were trypsinized (0.05%, Gibco) and washed with HBSS (Hanks balanced salt solution). The cells were counted using the Bio-RAD TC20 automated cell counter and suspended to a concentration of […] in HBSS. Thirty-two synergistic female C57BL/6 mice, between the ages 6-8 weeks, were subcutaneously injected in the right flank with 50 μL containing 5×10^4 A9 metastatic tumour cells. Seven days following tumour inoculation i.p. treatment began daily for 12 days. Four treatment groups were studied, with eight animals per group. […] Body weights were measured three times a week and once tumours developed they were measured with calipers and tumour volume was calculated. Twelve days after starting treatment, mice were euthanized and tumours were collected and weighed. The tumours were then processed for flow cytometry analysis. Tumours were cut into small pieces and incubated RPMI (Gibco; with P/S 0.5%, Sodium pyruvate 1%, and L-glutamine 1%) and 3 mg/mL collagenase A (Roche) for one hour at 37° C. with shaking. Dissociated tumour cells were passed through a 100 μm filter and spun down at 15,000×RCF for 3 minutes. The pellet was washed once in FACs buffer (2% FBS in PBS) and spun down. The pellet was next suspended in red blood cell (RBC) lysis buffer and kept at room temperature for 5 minutes before being neutralized by the addition of 5 ml of PBS and spun down. If pellets were still found to contain RBCs this step was repeated. Once all RBCs were removed cells were suspended in FACs buffer to a concentration of 10^7 cells/mL. A total volume of 200 ul of cells from each tumour were added to a 96 well plate (Falcon) and incubated with Fc Blocker (Biolegend, 1:400) for twenty minutes at 4° C. The 96 well plate was spun down at 1,200 rmp for three minutes and supernatant was removed. The cells were then suspended in 150 ul of FACs buffer containing anti-CD8a (PE-Cy7, 1:200, eBioscience) and CD4 (APC, 1:200, Biolegend) antibodies and incubated at 4° Celsius for 20 minutes. The cells were washed twice and spun down using FACs buffer before being to flow cytometry tubes in a final volume of 200 ul of FACs buffer containing 7AAD (Biolegend 1:200). Flow cytometry was performed on LSRII (BDBiosciences) and analysis was done using FlowJo (Flow cytometry Analysis Software).
Treatment of tumour-bearing mice with identified compounds. 5×10^4 A9 cells suspended in HBSS were subcutaneously (s.c.) transplanted into the right flank of 32 eight-week-old female C57BI/6 mice, as previously described 75. […] Body weight and tumours (once established) were measured every 2-4 days (more often as tumour size increased). Tumours were measured using calipers and volume was calculated as following: tumour volume=length×width^2. The tumour growth rate was assessed using methods previously described^28.

MHC-I [4] = details: earlier work of the lab; cited from earlier work
CD4+ and CD8+ T cells = assay: Analysis of tumour-infiltrating lymphocytes; type: in vivo, C57BL/6 mice; details: after 12 days of treatment, flow cytometry
Method: as §1
Analysis of tumour-infiltrating lymphocytes (TILs). Tumour-infiltrating T lymphocyte (either CD4^+ or CD8^+ T cells) infiltration was evaluated in tumours of mice following 2-week treatment with either compounds or controls. Tumours at the site of initial injection were removed from tumour-bearing mice. Following tumour dissociation in the presence of collagenase A (Roche) and erythrocyte lysis, the tumour cells were then washed and prepared as single-cell suspensions to detect TILs. Before staining with antibodies, the cells were incubated with Fc Blocker (Ebiosciences) for 20 minutes at 4° C. The tumour cells were then washed and stained with anti-CD4-APC (Biolegend), anti-CD8-PECy7 (eBiosciences) and 7-AAD (Biolegend) viability stain. Using flow cytometry, 7-AAD positive dead cells were gated out and the remaining population was assessed for CD4^+ and CD8^+ expression. Data were acquired using a BD™ LSR II flow cytometer (BD Biosciences) with FACSDiva™ software and analyzed with FlowJo software (Treestar).

TAP-1 = assay: High-throughput cell-based screen for TAP-1 induction (EGFP under the TAP-1 promoter); set-up: species or system murine; details: LMD:TAP-1 cells, 10 ng/mL
Excerpt: Identification of marine natural product extracts with the ability to promote up-regulation of TAP-1 and […] expression in cancer cells: A high-throughput cell-based screen was used for identification of candidate compounds that increase the expression of TAP-1 in the LMD murine metastatic prostate cell line. To assess the induction of TAP-1 expression we used the LMD:TAP-1 cell line, which was transfected with a vector containing EGFP under the TAP-1 promoter^44. The Cellomics™ Arrayscan VTI automated fluorescence imager was used to determine the cell numbers based on DNA staining and the average GFP fluorescence intensity which correlates to the levels of TAP-1 induction (FIG. 24A). […]
Cell-based screening assay. […] Image acquisition, segmentation and analysis of micro plates were carried out using the Cellomics™ Arrayscan V^TI automated fluorescence imager (Thermo Fisher Scientific). […] The target activation algorithm was used to identify the nuclei based on Hoechst fluorescence intensity, apply a cytoplasmic mask and quantitate GFP fluorescence intensity within the cytoplasmic mask area. Average GFP fluorescence intensity (intensity per cell per pixel) and total number of cells per well were determined. […]

Question: For Cc1ccc(CCCC(O)C(C)(C)O)c(O)c1 (stereo not shown) [P04-149], which “induction of MHC-I expression at the cell surface” value (MHC-I [1]) is on record?
Answer: increases MHC-I expression

Question: And the water solubility (Water solubility)?
Answer: water soluble

Question: With CC(/C=C/C(=O)NO)=C\[C@@H](C)C(=O)c1ccc(N(C)C)cc1 [TSA, Trichostatin A, reference compound] as the molecule, how does the “detection after 24 hours” value [2] read?
Answer: no detection

Question: What about the half-life [2] of the same molecule?
Answer: under ten

Question: And the “tumour volume / tumour growth compared to vehicle control” value ([3]; A9 tumours)?
Answer: reduced

Question: What about the body weight [3] of the same molecule?
Answer: remained stable; also recorded: no significant changes

Question: And the “restoring the MHC-I on A9 cells” value (MHC-I [4])?
Answer: effective in restoring the MHC-I

Question: What about the “CD4+ T cell infiltration of tumours” value (CD4+ and CD8+ T cells) of the same molecule?
Answer: no significant infiltration or difference; also recorded: did not appear to increase

Question: What about the “CD8+ T cell (CTL) infiltration of tumours” value (CD4+ and CD8+ T cells) of the same molecule?
Answer: greatest CD8+ infiltration; also recorded: increase in the CTL infiltration

B1: IFN-γ: known inducer of TAP-1 expression, positive control (protein, UniProt P01579 24-161, looked up)
Interferon gamma: QDPYVKEAENLKKYFNAGHSDVADNGTLFLGILKNWKEESDRKIMQSQIVSFYFKLFKNFKDDQSIQKSVETIKEDMNVKFFNSNKKKRDDFEKLTNYSVTDLNVQRKAIHELIQVMAELSPAAKTGKRKRSQMLFRG
Question: For B1, which “TAP promoter-induced GFP expression” value (TAP-1) is on record?
Answer: high level of GFP expression
